{
  "source": "ChEMBL document CHEMBL3045308",
  "about": "“Design and synthesis of novel pyrethriods containing eugenol moiety” (2012)",
  "data": [
    {"system": "Culex quinquefasciatus", "test": "Insecticidal activity against Culex quinquefasciatus assessed as contact mortality at 0.025 mg/ml at 24 hr by standard immersion method relative to control", "type": "functional", "units": {"mortality at 25 µg/mL": "%"}, "values": [
      {"smiles": "C=CC(OC(=O)C(c1ccc(Cl)cc1)C(C)C)c1ccc(OC(C)=O)c(OC)c1", "note": "(centres undefined)", "mortality at 25 µg/mL": 85},
      {"smiles": "C=CC(OC(=O)C(c1ccc(Cl)cc1)C(C)C)c1ccc(OCC)c(OC)c1", "note": "(centres undefined)", "mortality at 25 µg/mL": 96},
      {"smiles": "C=CC(OC(=O)C1C(C=C(C)C)C1(C)C)c1ccc(OC(C)=O)c(OC)c1", "note": "(centres undefined)", "mortality at 25 µg/mL": 88},
      {"smiles": "C=CC(OC(=O)C1C(C=C(C)C)C1(C)C)c1ccc(OCC)c(OC)c1", "note": "(centres undefined)", "mortality at 25 µg/mL": 97},
      {"smiles": "C=CCC1=C(C)C(OC(=O)C2C(C=C(C)C)C2(C)C)CC1=O", "note": "(centres undefined) [Allethrin]", "mortality at 25 µg/mL": 85},
      {"smiles": "CC(C)C(C(=O)OC(C#N)c1cccc(Oc2ccccc2)c1)c1ccc(Cl)cc1", "note": "(centres undefined) [FENVALERATE]", "mortality at 25 µg/mL": 88}
    ]},
    {"system": "Culex quinquefasciatus", "test": "Insecticidal activity against Culex quinquefasciatus assessed as contact mortality at 0.025 mg/ml at 12 hr by standard immersion method relative to control", "type": "functional", "units": {"mortality at 25 µg/mL": "%"}, "values": [
      {"smiles": "C=CC(OC(=O)C(c1ccc(Cl)cc1)C(C)C)c1ccc(OC(C)=O)c(OC)c1", "note": "(centres undefined)", "mortality at 25 µg/mL": 47},
      {"smiles": "C=CC(OC(=O)C(c1ccc(Cl)cc1)C(C)C)c1ccc(OCC)c(OC)c1", "note": "(centres undefined)", "mortality at 25 µg/mL": 42},
      {"smiles": "C=CC(OC(=O)C1C(C=C(C)C)C1(C)C)c1ccc(OC(C)=O)c(OC)c1", "note": "(centres undefined)", "mortality at 25 µg/mL": 34},
      {"smiles": "C=CC(OC(=O)C1C(C=C(C)C)C1(C)C)c1ccc(OCC)c(OC)c1", "note": "(centres undefined)", "mortality at 25 µg/mL": 40},
      {"smiles": "C=CCC1=C(C)C(OC(=O)C2C(C=C(C)C)C2(C)C)CC1=O", "note": "(centres undefined) [Allethrin]", "mortality at 25 µg/mL": 33},
      {"smiles": "CC(C)C(C(=O)OC(C#N)c1cccc(Oc2ccccc2)c1)c1ccc(Cl)cc1", "note": "(centres undefined) [FENVALERATE]", "mortality at 25 µg/mL": 40}
    ]},
    {"system": "Culex quinquefasciatus", "test": "Insecticidal activity against Culex quinquefasciatus assessed as contact mortality at 0.025 mg/ml at 4 hr by standard immersion method relative to control", "type": "functional", "units": {"mortality at 25 µg/mL": "%"}, "values": [
      {"smiles": "C=CC(OC(=O)C(c1ccc(Cl)cc1)C(C)C)c1ccc(OC(C)=O)c(OC)c1", "note": "(centres undefined)", "mortality at 25 µg/mL": 25},
      {"smiles": "C=CC(OC(=O)C(c1ccc(Cl)cc1)C(C)C)c1ccc(OCC)c(OC)c1", "note": "(centres undefined)", "mortality at 25 µg/mL": 23},
      {"smiles": "C=CC(OC(=O)C1C(C=C(C)C)C1(C)C)c1ccc(OC(C)=O)c(OC)c1", "note": "(centres undefined)", "mortality at 25 µg/mL": 25},
      {"smiles": "C=CC(OC(=O)C1C(C=C(C)C)C1(C)C)c1ccc(OCC)c(OC)c1", "note": "(centres undefined)", "mortality at 25 µg/mL": 22},
      {"smiles": "C=CCC1=C(C)C(OC(=O)C2C(C=C(C)C)C2(C)C)CC1=O", "note": "(centres undefined) [Allethrin]", "mortality at 25 µg/mL": 20},
      {"smiles": "CC(C)C(C(=O)OC(C#N)c1cccc(Oc2ccccc2)c1)c1ccc(Cl)cc1", "note": "(centres undefined) [FENVALERATE]", "mortality at 25 µg/mL": 18}
    ]},
    {"system": "Culex quinquefasciatus", "test": "Insecticidal activity against Culex quinquefasciatus assessed as contact mortality at 0.025 mg/ml at 1 hr by standard immersion method relative to control", "type": "functional", "units": {"mortality at 25 µg/mL": "%"}, "values": [
      {"smiles": "C=CC(OC(=O)C(c1ccc(Cl)cc1)C(C)C)c1ccc(OC(C)=O)c(OC)c1", "note": "(centres undefined)", "mortality at 25 µg/mL": 14},
      {"smiles": "C=CC(OC(=O)C(c1ccc(Cl)cc1)C(C)C)c1ccc(OCC)c(OC)c1", "note": "(centres undefined)", "mortality at 25 µg/mL": 10},
      {"smiles": "C=CC(OC(=O)C1C(C=C(C)C)C1(C)C)c1ccc(OC(C)=O)c(OC)c1", "note": "(centres undefined)", "mortality at 25 µg/mL": 10},
      {"smiles": "C=CC(OC(=O)C1C(C=C(C)C)C1(C)C)c1ccc(OCC)c(OC)c1", "note": "(centres undefined)", "mortality at 25 µg/mL": 15},
      {"smiles": "C=CCC1=C(C)C(OC(=O)C2C(C=C(C)C)C2(C)C)CC1=O", "note": "(centres undefined) [Allethrin]", "mortality at 25 µg/mL": 12},
      {"smiles": "CC(C)C(C(=O)OC(C#N)c1cccc(Oc2ccccc2)c1)c1ccc(Cl)cc1", "note": "(centres undefined) [FENVALERATE]", "mortality at 25 µg/mL": 10}
    ]}
  ]
}
